Where “and” joins values, the source holds several entries; their conditions need not be identical. Equal entries are not always repeated. Entries after “also recorded” stand apart in the source; their conditions may differ. Where two headings read alike, the source gives them in different places.
Legend:
[1] = tested on: caspase 3 activity in D283 Med cells; assay: caspase 3 activity assay in cell lysates; assay type: cell-based, human; details: 6 hour exposure
D283 Med cells = assay: MTS viability assay; assay type: cell-based, human; details: 1 μM to 30 μM, 48 hour exposure (Fig. 6 legend)
CHO PPARγ reporter cells = assay type: cell-based, Chinese Hamster; details: 0.1 μM to 100 μM; 24 hr
human PPARγ = target: T1, human PPARγ (Homo sapiens, UniProt P37231); assay type: cell-based; details: for fold increase in PPARγ activity relative to vehicle control: 10-fold concentration intervals (Fig. 4); for PPARγ agonist activity (result in words): 24 hr exposure, vs vehicle control
T1 sequence (P37231 1-505): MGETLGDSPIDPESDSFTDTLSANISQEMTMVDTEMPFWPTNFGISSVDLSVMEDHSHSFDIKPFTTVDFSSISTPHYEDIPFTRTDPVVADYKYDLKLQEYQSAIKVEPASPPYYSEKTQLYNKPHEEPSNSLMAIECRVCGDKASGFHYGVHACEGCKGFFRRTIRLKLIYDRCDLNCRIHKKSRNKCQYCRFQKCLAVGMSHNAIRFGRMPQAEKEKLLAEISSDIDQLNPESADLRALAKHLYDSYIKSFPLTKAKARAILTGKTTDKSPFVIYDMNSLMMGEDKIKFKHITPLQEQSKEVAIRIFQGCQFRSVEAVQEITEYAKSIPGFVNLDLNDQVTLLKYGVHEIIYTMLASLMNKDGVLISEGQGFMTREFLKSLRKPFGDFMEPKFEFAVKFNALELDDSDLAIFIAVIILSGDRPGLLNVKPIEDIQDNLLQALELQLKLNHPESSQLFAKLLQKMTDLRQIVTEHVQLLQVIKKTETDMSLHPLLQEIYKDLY

O=P(Oc1ccccc1)(Oc1ccccc1)Oc1ccccc1 [TPP, triphenyl phosphate] was tested, and the “concentration above which caspase activity significantly increased” value [1] was “above 1 μM”, the “effect on caspase 3 activity” value [1] was “significant dose dependent increases in caspase 3 activities” and the “effect on viability” value (D283 Med cells) was “decreased viability”. For the same compound, the “effect on cell viability” value (CHO PPARγ reporter cells) was “dose dependent decreases in cell viability”, the “Concentration of maximal PPARγ activity observed” value (human PPARγ) was 30 µM and the “fold increase in PPARγ activity relative to vehicle control” value (human PPARγ; 10 μM (10^-5 M)) was 6.23 ± 0.63 fold and 6.2 fold. The “fold increase in PPARγ activity” value (human PPARγ; 30 μM, focused analysis with half-log (3-fold) increments (Fig. 5)) was 20 ± 2.2 fold, the “fold increase in PPARγ activity relative to vehicle control” value (human PPARγ; 100 μM) was 2.84 ± 0.34 fold and the “PPARγ agonist activity (result in words)” value (human PPARγ) was “Significant agonist activity”. The “relative maximal PPARγ activity, percent of TPT Cl” value (human PPARγ; TPP at 30 μM) was 57% ± 6%.

[Cl][Sn]([c]1ccccc1)([c]1ccccc1)[c]1ccccc1 [TPT Cl, triphenyltin chloride, reference compound] was tested, and the “Concentration of maximal PPARγ activity observed” value (human PPARγ) was 0.1 µM, the “concentration above which PPARγ activity decreased” value (human PPARγ; non-monotonic concentration response) was greater than 0.1 µM and the AC50 (human PPARγ; read-out: AC50, concentration eliciting half-maximal response, 4-parameter variable slope model) was 3 nM and 3.3 nM.

With CCCCC(CC)COC(=O)c1cc(Br)c(Br)c(Br)c1Br (stereo not shown) [TBB, 2-ethylhexyl-2,3,4,5-tetrabromobenzoate] the “PPARγ agonist activity (result in words)” value (human PPARγ) was “No statistical differences; also recorded: No activity”.

For C=[CH][Sn]([CH2]CCC)([CH2]CCC)[CH2]CCC [TBVT, Tributyl(vinyl)tin, reference compound], the “Concentration of maximal PPARγ activity observed” value (human PPARγ) was 10 µM and the “fold increase in PPARγ activity relative to vehicle control” value (human PPARγ; 10 μM (10^-5 M)) was 3 fold and 3.3 ± 0.3 fold.

Reference: publication PMC4180444 (Toxicology letters, 2014)
